Test results as given in patent publication US8349827B2, “Substituted dipyrido-pyrimido-diazepine and benzo-pyrido-pyrimido compounds” (ArQule, Inc., priority 2009, dated 2013).

What was measured:
DLD-1 = assay: MTS assay, DLD-1 cells; type: cell-based; settings: Homo sapiens, 72 hours
Procedure: (§1) Cells were maintained at 37° C., 5% CO2 in DMEM media supplemented with 1% fetal bovine serum, penicillin/streptomycin and fungizone (Invitrogen). Cells were seeded into 96-well tissue culture plates at 3000 per well and cultured at 37° C. for 18 hours. Test compounds were dissolved and diluted to 300× in DMSO then diluted 1:40 in DMEM. Cells were incubated with test compounds for 72 hours followed by incubation with tetrazolium compound (3-(4,5-dimethylthiazol-2-yl)-5-(3-carboxymethoxyphenyl)-2-(4-sulfophenyl)-2H-tetrazolium, inner salt; MTS) and the electron coupling reagent, phenazine methosulfate (PMS) for 4 hours. […] The ability of compounds to inhibit cell growth in this assay is correlated with the reduction of dehydrogenase enzyme activity found in metabolically active cells. The measurement of the absorbance of the formazan was assessed using an ENVISION™ (Perkin Elmer) microplate reader at 492 nm. The calculated IC50 value is the concentration of the test compound that causes a 50% decrease in the absorbance.

KATO III = assay: MTS assay, KATO III cells; type: cell-based; settings: Homo sapiens, 72 hours
Procedure: as §1

MDA-MB-231 = assay: MTS assay, MDA-MB-231 cells; type: cell-based; settings: Homo sapiens, 72 hours
Procedure: as §1

NCI-H1299 = assay: MTS assay, NCI-H1299 cells; type: cell-based; settings: Homo sapiens, 72 hours
Procedure: as §1

PACA-2 = assay: MTS assay, PACA-2 cells; type: cell-based; settings: 72 hours
Procedure: as §1

PC-3 = assay: MTS assay, PC-3 cells; type: cell-based; settings: Homo sapiens, 72 hours
Procedure: as §1

ABL T315I = ABL T315I (Homo sapiens, UniProt P00519, T315I); assay: ABL Kinase Activity Assay (Elisa), ABL T315I; type: biochemical; settings: ATP 100 μM, read-out: Abl(T315I) Enzymetic assay (Elisa) % inhibition
Procedure: (§2) ABL Kinase Activity Assay
(§3) The disclosed compounds were assayed for their ability to inhibit the activity of ABL kinase. Nunc Maxisorb plates were coated with streptavidin by overnight incubation with 100 μL per well of 1 μg/ml streptavidin in DPBS. Prior to the experiment, the plates were washed with TBST (3×200 μL) and blocked for at least 3 hours by adding 150 μL of 5% BSA/TBST. The plates were washed with TBST (3×200 μL/well) and left dry immediately before the capture step.
(§4) The disclosed test compounds and controls (Gleevec) were prepared using the following assay buffer@10× desired final concentration (50 mM Tris pH 7.0, 0.02 mg/ml BSA, 10 mM MgCl2, 0.1 mM Na3VO4, 1 mM EGTA, 0.01% NP-40, 1 mM DTT in 10% glycerol/water). In a reaction plate, 5 μl test article (or control) and 30 μl ABL or ABL T315I (0.089 nM final concentration, in the above buffer) were added rapidly. The plate was incubated for 20 minutes. To the reaction plate was added ATP (100 μM final concentration) and AblTide (128 nM final concentration) in a volume of 15 μl. The plate was incubated at room temperature for one hour.
(§5) From the reaction plate, 40 μl was transferred to the streptavidin coated plate. The capture plate was incubated at room temperature for 30 minutes, then washed 3× with TBST. To the capture plate was added 100 μL/well of cell signaling anti-phospho tyrosine at a dilution of 1:3000 in 2% BSA/TBST. The plate was incubated for two hours at room temperature then washed 3× with TBST. To the capture plate was added 100 μL/well of alkaline phosphatase tagged goat anti mouse antibody at a dilution of 1:4000 in 2% BSA/TBST. The plate was incubated for one hour at room temperature then washed 3× with TBST.
(§6) The fluorescent readout was initiated by the addition of 100 μl/well of Attophos reagent (6 mg/10 mL). The reading was done on the Perkin Elmer Envision system.

ABL = ABL (Homo sapiens, UniProt P00519); assay: ABL Kinase Activity Assay (Elisa), ABL; type: biochemical; settings: ATP 100 μM, read-out: Abl Enzymetic assay (Elisa) % inhibition
Procedure: as §2, §3, §4, §5, §6

Compound	inhibition at 10 µM (DLD-1) [%]	inhibition at 10 µM (KATO III) [%]	inhibition at 10 µM (MDA-MB-231) [%]	inhibition at 10 µM (NCI-H1299) [%]	inhibition at 10 µM (PACA-2) [%]	inhibition at 10 µM (PC-3) [%]	inhibition at 10 µM (ABL T315I) [%]	inhibition at 10 µM (ABL) [%]
FC(F)(F)c1ccccc1CNc1ncc2c(n1)-c1cccnc1Nc1cnccc1-2 [Example 3, N-[2-(trifluoromethyl)benzyl]-9H-dipyrido[2,3-b:4′,3′-f]pyrimido[4,5-d]azepin-2-amine]	< 50	< 50	< 50	50 to 79	< 50	< 50	80 to 100	50 to 79
O=C1CCCN1CCCNc1ncc2c(n1)-c1cccnc1Nc1cnccc1-2 [Example 4, 1-[3-(9H-dipyrido[2,3-b:4′,3′-f]pyrimido[4,5-d]azepin-2-ylamino)propyl]pyrrolidin-2-one]	< 50	< 50	< 50	< 50	–	< 50	80 to 100	50 to 79
Fc1ccc(CNc2ncc3c(n2)-c2cccnc2Nc2cnccc2-3)c(Cl)c1 [Example 10, N-(2-chloro-4-fluorobenzyl)-9H-dipyrido[2,3-b:4′,3′-f]pyrimido[4,5-d]azepin-2-amine]	–	–	< 50	< 50	–	< 50	80 to 100	80 to 100
CC(CO)Nc1ncc2c(n1)-c1cccnc1Nc1cnccc1-2 (centres unmarked) [Example 17, 2-(9H-dipyrido[2,3-b:4′,3′-f]pyrimido[4,5-d]azepin-2-ylamino)propan-1-ol]	–	< 50	–	–	–	< 50	80 to 100	80 to 100
CCC(CC)Nc1ncc2c(n1)-c1cccnc1Nc1cnccc1-2 [Example 18, N-(1-ethylpropyl)-9H-dipyrido[2,3-b:4′,3′-f]pyrimido[4,5-d]azepin-2-amine]	< 50	50 to 79	< 50	< 50	–	< 50	80 to 100	80 to 100
COc1cc(CCNc2ncc3c(n2)-c2cccnc2Nc2cnccc2-3)cc(OC)c1 [Example 38, N-[2-(3,5-dimethoxyphenyl)ethyl]-9H-dipyrido[2,3-b:4′,3′-f]pyrimido[4,5-d]azepin-2-amine]	< 50	< 50	–	–	< 50	< 50	< 50	50 to 79
c1ccc(-c2cccc(CNc3ncc4c(n3)-c3cccnc3Nc3cnccc3-4)c2)cc1 [Example 45, N-(biphenyl-3-ylmethyl)-9H-dipyrido[2,3-b:4′,3′-f]pyrimido[4,5-d]azepin-2-amine]	80 to 100	80 to 100	–	50 to 79	80 to 100	< 50	80 to 100	80 to 100
Brc1ccc(CCNc2ncc3c(n2)-c2cccnc2Nc2cnccc2-3)cc1 [Example 46, N-[2-(4-bromophenyl)ethyl]-9H-dipyrido[2,3-b:4′,3′-f]pyrimido[4,5-d]azepin-2-amine]	50 to 79	50 to 79	–	< 50	< 50	< 50	80 to 100	80 to 100
CN(C)CCCCCNc1ncc2c(n1)-c1cccnc1Nc1cnccc1-2 [Example 48, N′-9H-dipyrido[2,3-b:4′,3′-f]pyrimido[4,5-d]azepin-2-yl-N,N-dimethylpentane-1,5-diamine]	< 50	< 50	50 to 79	–	< 50	50 to 79	80 to 100	80 to 100
c1ccc(CNc2ncc3c(n2)-c2cccnc2Nc2cnccc2-3)nc1 [Example 49, N-(pyridin-2-ylmethyl)-9H-dipyrido[2,3-b:4′,3′-f]pyrimido[4,5-d]azepin-2-amine]	80 to 100	80 to 100	80 to 100	80 to 100	80 to 100	80 to 100	–	–
CN(C)CCCNc1ncc2c(n1)-c1cccnc1Nc1cnccc1-2 [Example 50, N′-9H-dipyrido[2,3-b:4′,3′-f]pyrimido[4,5-d]azepin-2-yl-N,N-dimethylpropane-1,3-diamine]	–	< 50	–	–	< 50	< 50	< 50	50 to 79
CC(=O)N1CCN(c2ncc3c(n2)-c2cccnc2Nc2cnccc2-3)CC1 [Example 57, 2-(4-acetylpiperazin-1-yl)-9H-dipyrido[2,3-b:4′,3′-f]pyrimido[4,5-d]azepine]	80 to 100	80 to 100	80 to 100	80 to 100	80 to 100	80 to 100	–	–
CC(C)(C)C(=O)N1CCN(c2ncc3c(n2)-c2cccnc2Nc2cnccc2-3)CC1 [Example 58, 2-[4-(2,2-dimethylpropanoyl)piperazin-1-yl]-9H-dipyrido[2,3-b:4′,3′-f]pyrimido[4,5-d]azepine]	80 to 100	50 to 79	< 50	–	80 to 100	50 to 79	–	–
c1cnc2c(c1)-c1nc(NC3CCNCC3)ncc1-c1ccncc1N2 [Example 59, N-piperidin-4-yl-9H-dipyrido[2,3-b:4′,3′-f]pyrimido[4,5-d]azepin-2-amine]	–	80 to 100	80 to 100	–	–	80 to 100	80 to 100	80 to 100
Nc1ncc2c(n1)-c1cccnc1Nc1ccccc1-2 [Example 62, 9H-pyrido[2,3-b]pyrimido[4,5-d][1]benzazepin-2-amine]	–	< 50	< 50	–	< 50	< 50	50 to 79	50 to 79
Fc1ccc(CNc2ncc3c(n2)-c2cccnc2Nc2ccccc2-3)c(F)c1 [Example 64, N-(2,4-difluorobenzyl)-9H-pyrido[2,3-b]pyrimido[4,5-d][1]benzazepin-2-amine]	< 50	< 50	< 50	< 50	–	< 50	< 50	50 to 79
CC(=O)N1CCN(c2ncc3c(n2)-c2cccnc2Nc2ccccc2-3)CC1 [Example 68, 2-(4-acetylpiperazin-1-yl)-9H-pyrido[2 ,3-b]pyrimido[4,5-d][1]benzazepine]	80 to 100	80 to 100	80 to 100	50 to 79	80 to 100	80 to 100	–	–
Fc1ccc(CNc2ncc3c(n2)-c2ccccc2Nc2cnccc2-3)c(F)c1 [Example 69, N-(2,4-difluorobenzyl)-9H-pyrido[3,4-b]pyrimido[5,4-d][1]benzazepin-2-amine]	80 to 100	80 to 100	80 to 100	80 to 100	80 to 100	80 to 100	–	–
Clc1cccc(CNc2ncc3c(n2)-c2ccccc2Nc2cnccc2-3)c1 [Example 70, N-(3-chlorobenzyl)-9H-pyrido[3,4-b]pyrimido[5,4-d][1]benzazepin-2-amine]	80 to 100	80 to 100	80 to 100	80 to 100	80 to 100	80 to 100	–	–
